# Results: patent publication US20050090522A1 (priority 2001, published 2005)
# Test system: HIV-1
# Experiment: HIV-1 single-round infectious luciferase reporter virus (pseudotype) assay in HeLa CD4 CCR5 cells
# Assay type: cell-based
# Conditions: Human immunodeficiency virus 1, HeLa-CD4/CCR5, read-out: EC50 Group from TABLE 1, HeLa CD4 CCR5 cells, single-round infectious luciferase reporter virus
# Description: • Virus production—Human embryonic Kidney cell line, 293, propagated in Dulbecco's Modified Eagle Medium (Life Technologies, Gaithersburg, Md.) containing 10% fetal Bovine serum (FBS, Sigma, St. Louis, Mo.). • Virus infection—Human epithelial cell line, HeLa, expressing the HIV-1 receptors CD4 and CCR^5 was propagated in Dulbecco's Modified Eagle Medium (Life Technologies, Gaithersburg, Md.) containing 10% fetal Bovine serum (FBS, Sigma, St. Louis, Mo.) and supplemented with 0.2 mg/mL Geneticin (Life Technologies, Gaithersburg, Md.) and 0.4 mg/mL Zeocin (Invitrogen, Carlsbad, Calif.). […] Transfections were performed using lipofectAMINE PLUS reagent as described by the manufacturer (Life Technologies, Gaithersburg, Md.). Experiment • 1. Compound was added to HeLa CD4 CCR5 cells plated in 96 well plates at a cell density of 5×10^4 cells per well in 100 μl Dulbecco's Modified Eagle Medium containing 10% fetal Bovine serum at a concentration of […]. • 2. 100 μl of single-round infectious reporter virus in Dulbecco's Modified Eagle Medium was then added to the plated cells and compound at an approximate multiplicity of infection (MOI) of 0.01, resulting in a final volume of 200 μl per well and a final compound concentration of <10 μM. • 3. Samples were harvested 72 h after infection. • 4. Viral infection was monitored by measuring luciferase expression from viral DNA in the infected cells using a luciferase reporter gene assay kit (Roche Molecular Biochemicals, Indianapolis, Ind.). Infected cell supernatants were removed and 50 μl of Dulbecco's Modified Eagle Medium (without phenol red) and 50 μl of luciferase assay reagent reconstituted as described by the manufacturer (Roche Molecular Biochemicals, Indianapolis, Ind.) was added per well. Luciferase activity was then quantified by measuring luminescence using a Wallac microbeta scintillation counter. • 5. […] An EC50 provides a method for comparing the antiviral potency of the compounds of this invention. The effective concentration for fifty percent inhibition (EC50) was calculated with the Microsoft Excel Xlfit curve fitting software. For each compound, curves were generated from percent inhibition calculated at 10 different concentrations by using a four paramenter logistic model (model 205). Table 1 is the key for the data in Tables 2-4. Cytoxicity assays were conducted with the same HeLa using methodology well known in the art.
# In Table 5, X2, X4 etc. indicates the point of attachment. […] The data at 10 μM was calculated in the following manner:
# For compounds tested at concentrations less than 10 μM, the percent inhibition at 10 μM was determined by extrapolation using the XLfit curve fitting feature of the Microsoft Excel spreadsheet software. Curves were obtained from 10 data points (% inhibition determined at 10 concentrations of compound) by using a four parameter logistic model (XLfit model 205: y=A+((B−A)/(I+((C/x)^D))), where, A=minimum y, B=maximum y, C=logEC50, D=slope factor, and x and y are known data values. Extrapolations were performed with the A and B parameters unlocked. […]
row,SMILES,EC50 [µM]
1,"COc1cnc(-c2cncc(N)n2)c2[nH]cc(C(=O)C(=O)N3CCN(C(=O)c4ccccc4)CC3)c12 [Example 46, 1-benzoyl-4-[(4-methoxy-7-(2-amino-pyrazin-6-yl)-6-azaindol-3-yl)-oxoacetyl]piperazine]",< 1
2,"COc1cnc(-c2cnc(-c3nccs3)s2)c2[nH]cc(C(=O)C(=O)N3CCN(C(=O)c4ccccc4)CC3)c12 [Example 92, 1-benzoyl-4-[(4-methoxy-7-(2-(thiazol-2-yl)-thiazol-5-yl)-6-azaindol-3-yl)-oxoacetyl]piperazine]",< 1
3,C[C@@H]1CN(C(=O)c2ccccc2)CCN1C(=O)C(=O)c1c[nH]c2c(-c3cnc(O)nc3)nccc12 [Example 162],< 1
4,"O=C(C(=O)N1CCN(C(=O)c2ccccc2)CC1)c1c[nH]c2c(-c3ccc(Cl)cc3)nccc12 [Example 2, 1-benzoyl-4-[(7-(4-chlorophenyl)-6-azaindol-3-yl)-oxoacetyl]piperazine]",< 1
5,"C[C@H]1CN(C(=O)c2ccccn2)CCN1C(=O)C(=O)c1c[nH]c2c(-c3cncs3)nccc12 [Example 110, (S)-1-picolinoyl-3-methyl-4-[(7-(thiazol-5-yl)-6-azaindol-3-yl)-oxoacetyl]piperazine]",< 1
6,"COc1ncn(-c2ncc(OC)c3c(C(=O)C(=O)N4CCN(C(=O)c5ccccc5)CC4)c[nH]c23)n1 [Example 291, 1-benzoyl-4-[(4-methoxy-7-(3-methoxy-[1,2,4]triazol-1-yl)-6-azaindol-3-yl)-oxoacetyl]piperazine]",< 1
7,"COc1cnc(-c2ccc(C=O)s2)c2[nH]cc(C(=O)C(=O)N3CCN(C(=O)c4ccccc4)CC3)c12 [Example 84, 1-benzoyl-4-[(4-methoxy-7-(5-carbonyl-thiophen-2-yl)-6-azaindol-3-yl)-oxoacetyl]piperazine]",< 1
8,"COc1cccc(-c2ncc(OC)c3c(C(=O)C(=O)N4CCN(C(=O)c5ccccc5)CC4)c[nH]c23)n1 [Example 77, 1-benzoyl-4-[(4-methoxy-7-(2-methoxy-pyridin-6-yl)-6-azaindol-3-yl)-oxoacetyl]piperazine]",< 1
9,"COc1cnc(-c2cnc(N(C)CCN(C)C)cn2)c2[nH]cc(C(=O)C(=O)N3CCN(C(=O)c4ccccc4)CC3)c12 [Example 176, 1-benzoyl-4-[(4-methoxy-7-(2-(N-dimethylaminoethyl-N-methyl)aminopyrazin-S-yl)-6-azaindol-3-yl)-oxoacetyl]piperazine]",< 1
10,"C[C@@H]1CN(C(=O)c2ccccc2)CCN1C(=O)C(=O)c1c[nH]c2c(-c3nccs3)nccc12 [Example 20, 1-benzoyl-3-(R)-methyl-4-[(7-(thiazol-2-yl)-6-azaindol-3-yl)oxoacetyl]piperazine]",< 1
11,"CCc1ncc(-c2ncc(OC)c3c(C(=O)C(=O)N4CCN(C(=O)c5ccccc5)CC4)c[nH]c23)s1 [Example 88, 1-benzoyl-4-[(4-methoxy-7-(2-ethyl-thiazol-5-yl)-6-azaindol-3-yl)-oxoacetyl]piperazine]",< 1
12,CCOC(=O)c1cc(-c2ncc(F)c3c(C(=O)C(=O)N4CCN(C(=O)c5ccccc5)CC4)c[nH]c23)n[nH]1 [Example 209],< 1
13,"COc1cnc(-n2ccc(CC(C)C)n2)c2[nH]cc(C(=O)C(=O)N3CCN(C(=O)c4ccccc4)CC3)c12 [Example 281, 1-benzoyl-4-[(4-methoxy-7-(3-isobutyl-pyrazol-1-yl)-6-azaindol-3-yl)-oxoacetyl]piperazine]",< 1
14,"O=C(C(=O)N1CCN(C(=O)c2ccccc2)CC1)c1c[nH]c2c(-c3ccco3)nccc12 [Example 7, 1-benzoyl-4-[(7-(furan-2-yl)-6-azaindol-3-yl)-oxoacetyl] piperazine]",< 1
15,"COc1cnc(-c2cnc3ccccc3n2)c2[nH]cc(C(=O)C(=O)N3CCN(C(=O)c4ccccn4)CC3)c12 [Example 186, 1-picolinoyl-4-[(4-methoxy-7-(quinoxakin-2-yl)-6-azaindol-3-yl)-oxoacetyl]piperazine]",< 1
16,"CNc1ncc(-c2ncc(OC)c3c(C(=O)C(=O)N4CCN(C(=O)c5ccccc5)CC4)c[nH]c23)nc1OC [Example 100, 1-benzoyl-4-[(4-methoxy-7-(2-methylamino-3-methoxy-pyrazin-5-yl)-6-azaindol-3-yl)-oxoacetyl]piperazine]",< 1
17,COc1cnc(-c2nc(-c3csc(C)n3)n[nH]2)c2[nH]cc(C(=O)C(=O)N3CCN(C(=O)c4ccccc4)[C@H](C)C3)c12 [Example 341],< 1

# Same assay, conditions: Human immunodeficiency virus 1, HeLa-CD4/CCR5, read-out: EC50 Group from Table 1, Table 2-1; HeLa CD4 CCR5 cells, single-round luciferase reporter virus
row,SMILES,EC50 [µM]
1,COc1cnc(-c2cnc(O)cn2)c2[nH]cc(C(=O)C(=O)N3CCN(C(=O)c4ccccc4)[C@H](C)C3)c12 [Example 271],< 1
2,COc1cnc(-c2cnc(O)cn2)c2[nH]cc(C(=O)C(=O)N3CCN(C(=O)c4ccccn4)[C@H](C)C3)c12 [Example 272],< 1
3,"COc1cnc(-n2ccc(C(F)(F)F)n2)c2[nH]cc(C(=O)C(=O)N3CCN(C(=O)c4ccccc4)[C@H](C)C3)c12 [Example 244, (R)-1-benzoyl-2-methyl-4-[(4-methoxy-7-(3-trifluoromethyl-pyrazol-1-yl)-6-azaindol-3-yl)-oxoacetyl]piperazine]",< 1
4,COc1cnc(-c2nc(-c3ccccc3)n[nH]2)c2[nH]cc(C(=O)C(=O)N3CCN(C(=O)c4ccccc4)[C@H](C)C3)c12 [Example 335],< 1
5,COc1cnc(-c2nc(-c3ccoc3)n[nH]2)c2[nH]cc(C(=O)C(=O)N3CCN(C(=O)c4ccccc4)[C@H](C)C3)c12 [Example 340],< 1
6,"COc1cnc(-n2ccc(O)n2)c2[nH]cc(C(=O)C(=O)N3CCN(C(=O)c4ccccc4)[C@H](C)C3)c12 [Example 257, (R)-1-benzoyl-2-methyl-4-[(4-methoxy-7-(3-hydroxylpyrazol-1-yl)-6-azaindol-3-yl)-oxoacetyl]piperazine]",< 1
7,"COc1cnc(-n2cc(CO)cn2)c2[nH]cc(C(=O)C(=O)N3CCN(C(=O)c4ccccc4)C[C@H]3C)c12 [Example 237, (R)-1-benzoyl-3-methyl-4-[(4-methoxy-7-(4-hydroxylmethyl-pyrazol-1-yl)-6-azaindol-3-yl)-oxoacetyl]piperazine]",< 1
8,COc1cnc(-c2nc(-c3csc(C)n3)n[nH]2)c2[nH]cc(C(=O)C(=O)N3CCN(C(=O)c4ccccc4)[C@H](C)C3)c12 [Example 341],< 1
9,"COc1cnc(-n2ccc(C3CCC3)n2)c2[nH]cc(C(=O)C(=O)N3CCN(C(=O)c4ccccc4)[C@H](C)C3)c12 [Example 232, (R)-1-benzoyl-2-methyl-4-[(4-methoxy-7-(3-cycloputyl-pyrazol-1-yl)-6-azaindol-3-yl)-oxoacetyl]piperazine]",< 1

# Same assay, conditions: Human immunodeficiency virus 1, HeLa-CD4/CCR5, read-out: EC50 Group from Table 1, Table 4; HeLa CD4 CCR5 cells, single-round luciferase reporter virus
row,SMILES,EC50 [µM]
1,"C[C@@H]1CN(C(=O)c2ccccc2)CCN1C(=O)C(=O)c1c[nH]c2c(-c3ncc[nH]3)cc(Cl)nc12 [Example 60, 1-benzoyl-3-(R)-methyl-4-[(5-chloro-7-(imidazol-2-yl)-4-azaindol-3-yl)-oxoacetyl]piperazine]",< 1
2,O=C(C(=O)N1CCN(C(=O)c2ccccc2)CC1)c1c[nH]c2c(-c3nccs3)ccnc12 [Example 131],< 1
3,"C[C@@H]1CN(C(=O)c2ccccc2)CCN1C(=O)C(=O)c1c[nH]c2c(C(=O)NCc3ccc(C(F)(F)F)cc3)ccnc12 [Example 135, (R)-1-benzoyl-3-methyl-4-[(7-(4-trifluoromethylbenzylarmino)carbonyl-4-azaindol-3-yl)-oxoacetyl]piperazine]",< 1
